# Key:
# [1] = Dynamic light scattering (DLS); format: physicochemical
# Experimental: DLS was performed on a DynaPro-801 Molecular Sizing Instrument. Protein solutions (250 μl) prepared either in water or in 50% aqueous TFE at a concentration of ˜3 mg ml^−1 (sVpr) or 4 mg ml^−1 (Vpr^47-96) were injected through a 0.1-μm Whatman membrane filter. Samples were illuminated by a semiconductor laser (780 nm, 25 mW) generated by a miniature solid-state Ga1-yAlyAs-diode. The photons scattered at a 90° angle by the particles in the sample were collected by an avalanche photodiode, and the time-dependent fluctuation in intensity of the scattered light was analyzed. The translational diffusion coefficient DT was calculated with the manufacturer's software (Dynamics, version 2.1). DT was then used to calculate the degree of sample polydispersity and the hydrodynamic radius of gyration RH of the particles using the Stokes-Einstein equation: (RH=(kbT)*(6πηDT)^−1 where kb=Boltzman's constant, T=absolute temperature in Kelvin, and η=solvent viscosity). Mr was calculated on a standard curve (Mr vs. RH) supplied by the manufacturer. Ten continuous measurements were made for each sample.
# [2] = test system: rat yolk choriocarcinoma L2-RYC cells; assay: Cellular uptake of 125I-labeled peptides; format: cell-based
# Experimental: sVpr and Vpu^32-81 were iodinated with the chloramine-T method. Briefly, ˜20 μg of peptides were reacted with 5.5×10^7 Bq (1.5 mCi) Na^125I. Free iodine was removed by gel filtration through a Dowex ion-exchange column saturated with bovine serum albumin (BSA). For studies on cellular uptake, rat yolk choriocarcinoma L2-RYC cells were grown in Dulbecco's modified Eagle's medium (DMEM) with 10% (v/v) fetal bovine serum (FBS) to 75% confluence on 24-well plates. Cells were washed once with phosphate-buffered saline (PBS) and incubated in serum-free DMEM supplemented with 0.1% BSA and ^125I-labeled sVpr or, as a negative control, ^125I-labeled Vpu^32-81. Radioactive peptides were added to the medium at a specific activity of 18 kBq ml^−1. In parallel, cells were also treated with a 100-fold excess of unlabeled sVpr or Vpu^32-81. Cells were incubated for specified times at 37° C., and the distribution of intra- and extracellular radioactivity was determined as described (50). […] Radioactivity was determined in triplicate in the medium and cell layer. To correct for nonspecific binding of peptides to the cell surface, the cell layer radioactivity determined at time point 0 min (time when radiolabeled peptides were added to the medium for less than 30 sec) was subtracted as background from the radioactivity detected in the cell layer.
# Jurkat T cells [3] = assay: sVpr uptake by Jurkat T cells (flow cytometry); format: cell-based, human
# Excerpt: (§1) Full length Vpr was chemically synthesized and fluorescently labeled, purified by reverse phase HPLC, and added to the extracellular media of various cell cultures. Flow cytometry and epifluorescence microscopy were employed to monitor cellular uptake of sVpr. The distribution of cells within different phases of the cell cycle was studied by To-Pro-3 dye staining of DNA followed by flow cytometric analysis.
# Jurkat T cells [4] = assay: Apoptosis induction in Jurkat T cells; format: cell-based, human; conditions: by 3 days
# Jurkat T cells [5] = assay: G2 cell cycle arrest in transduced Jurkat T cells; format: cell-based, human; conditions: transduced subpopulations
# Excerpt: as §1
# [6] = test system: peripheral blood mononuclear cells; assay: Transduction of freshly isolated peripheral blood mononuclear cells; format: cell-based, human
# Excerpt: as §1
# HIV-1 ΔVpr = HIV-1 ΔVpr replication in macrophages (RT activity) with sVpr in the extracellular medium; format: cell-based; conditions: monocyte-derived macrophages
# cells [7] = assay: Trypsin-insensitive cellular uptake at 37° C. or 4° C. (geometric mean fluorescence); format: cell-based; conditions: presence or absence of trypsin
# Excerpt: as §1
# cells [8] = assay: Transduction with and without urea denaturation (percent of cells FITC+); format: cell-based
# Excerpt: as §1
# HIV-1 virions = assay: Incorporation of sVpr into HIV-1 virions (western blot); format: cell-based; conditions: anti-Vpr and anti-p24
# [9] = Solubility / absence of precipitation in aqueous solution; format: physicochemical
# [10] = Immunization of rabbits with sVpr; format: in vivo, rabbit; conditions: used to generate polyclonal and monoclonal antibodies
# Excerpt: A rabbit polyclonal antiserum, R-96, was generated by immunization with sVpr.
# [11] = target: synthetic Vpr (sVpr), full-length, sequence derived from the isolate HIV-1 NL4-3 (HIV-1 (isolate NL4-3)) (UniProt P12520); assay: SDS-PAGE without reducing agent, silver stain; dimers prevented by DTT
substance,measurement,setting,value
Vpr^47-96: peptide comprising the C-terminal domain of sVpr from positions Tyr-47 to Ser-96,"hydrodynamic radius RH of major species (monomer, 94.2% abundance)",[1]; 50% TFE,1.25
same,hydrodynamic radius RH,"[1]; pure water (sVpr: 3.8 mg ml^−1, pH 3.0; components of 14% and 86% abundance)",~3 nm
"sVpr: synthetic full-length 96-amino acid HIV-1 Vpr, sequence derived from isolate HIV-1 NL4-3 (SEQ ID NO: 1), made by solid-phase peptide synthesis","level of intracellular peptide, maximum","[2]; 125I-labeled, within 2 hours, 37° C.",8-10%
same,uptake with 100-fold excess of unlabeled sVpr,[2]; 120 min,not inhibited
same,transduction of Jurkat T cells,"Jurkat T cells [3]; 7.5, 15, 30 μg/ml",dose-dependent fashion
same,Cy3-positive cells (uptake),"Jurkat T cells [3]; Jurkat T cells, at 5 min",> 75%
same,apoptotic cells,Jurkat T cells [4],approximately 90%
same,G2 cell cycle arrest,Jurkat T cells [5],induces a dose-dependent G2 cell cycle arrest
same,"transduction of CD4+, CD8+, CD3− lymphocytes and CD14+ monocytes",[6]; freshly isolated mixed cell populations,equivalently transduced
same,transduction of freshly isolated primary human cells,[6]; nanomolar concentrations,rapidly and strongly transduces
same,replication of HIV viruses lacking Vpr,HIV-1 ΔVpr,significantly increases
same,cell entry at 4° C.,cells [7],enters cells at 4 °C
same,effect of urea denaturation on transduction properties,cells [8],does not enhance
same,incorporation into newly produced HIV-1 virions,HIV-1 virions,is incorporated into newly produced HIV-1 virions
same,hydrodynamic radius RH (average),[1]; 50% TFE,2.3 nm
same,concentration at which no precipitation was observed,[9]; aqueous solution,≥ 4000 µg/mL
same,precipitation under CD solution conditions,"[9]; phosphate buffer pH 3.9 to 7.2, water, TFE",no precipitation
same,immunogenicity,[10],highly immunogenic
"synthetic Vpr (sVpr), full-length, sequence derived from the isolate HIV-1 NL4-3 (from UniProt P12520 1-96)",percent of molecules as disulfide-linked dimers,[11],10%

# Reference: patent US6664040B2, “Compositions and methods for delivery of a molecule into a cell” (priority 2000, dated 2003)
